The source of these data is patent US9278978B2, “6-Alkynyl Pyridine” (Boehringer Ingelheim International GmbH, priority 2013, dated 2016).

Structures are written as SMILES.

For this assay, the target named is cIAP1 BIR3 (Homo sapiens (Human), UniProt Q13490). The assay can be described thus: cIAP1 BIR3 binding assay (DELFIA), BIR3 domain-SMAC peptide interaction. As to conditions: BIR3 domain 10 nM, SMAC peptide 10 nM; (S)-isomer (examples 1-34, 38-43) or racemate (examples 35-37); read-out: cIAP1 BIR-3 IC50. The method, then: XIAP BIR3 and cIAP1 BIR3 Binding Assays (DELFIA)
Peptide […]-Lys(Biotin), representing the N-terminus of mature human SMAC(SMAC peptide), was used as interaction partner in the protein-peptide interaction assay.
BIR3 domains (10 nM) were incubated with SMAC peptide (10 nM) in assay buffer (50 mM Tris, 120 mM NaCl, 0.1% BSA, 1 mM DTT, 0.05% TritonX100) for one hour at room temperature in the presence of inhibitory compounds. The assay mixture was transferred to a strepatvidin coated plate and incubated for one hour at room temperature to allow binding of the biotinylated peptide and associated BIR3 domains to the plate. After several washing steps Eu labeled anti-GST antibody (e.g. Perkin Elmer DELFIA Eu-N1-antiGST AD0250) was added to detect BIR3 domain-SMAC peptide interactions according to Perkin Elmer's instructions. […] Time resolved Europium fluorescence was measured in a Wallac Victor using Standard assay settings.
DELFIA assay results were plotted against compound concentrations and Software GraphPad Prizm was used to calculate half maximal inhibitory concentrations (IC50 values).
On to `CNC(C)C(=O)Nc1cc(-c2ccc(C(F)(F)F)nc2)cc(C#Cc2ccccc2)n1` (stereo not shown) [Example 30, 2-(methylamino)-N-[6-(2-phenylethynyl)-4-[6-(trifluoromethyl)pyridin-3-yl]pyridin-2-yl]propanamide], for which the 50% inhibitory concentration (IC50) worked out at 352 nM.
Regarding `CNC(C)C(=O)Nc1cc(-c2ccc(OC)nc2)cc(C#Cc2ccccc2)n1` (stereo not shown) [Example 31, N-[4-(6-methoxypyridin-3-yl)-6-(2-phenylethynyl)pyridin-2-yl]-2-(methylamino)propanamide], the IC50 amounted to 325 nM.
Turning to `CNC(C)C(=O)Nc1cc(-c2ccccc2F)cc(C#Cc2ccccc2)n1` (stereo not shown) [Example 32, N-[4-(2-fluorophenyl)-6-(2-phenylethynyl)pyridin-2-yl]-2-(methylamino)propanamide], the half-inhibitory concentration (IC50) is 4010 nM.
For the compound `CNC(C)C(=O)Nc1cc(-c2cccnc2)cc(C#Cc2ccccc2)n1` (stereo not shown) [Example 34, 2-(methylamino)-N-[6-(2-phenyethynyl)-4-(pyridin-3-yl)pyridin-2-yl]propanamide], the half-maximal inhibitory concentration (IC50) came to 250 nM.
To `CNC(C)C(=O)Nc1cc(-c2ncnc3c(C)nn(C)c23)cc(C#Cc2ccc3nc(C)ccc3c2)n1` (stereo not shown) [Example 38, N-(4-{1,3-dimethyl-1H-pyrazolo[4,3-d]pyrimidin-7-yl}-6-[2-(2-methylquinolin-6-yl)ethynyl]pyridin-2-yl)-2-(methylamino)propanamide] belongs 1 nM; to `CNC(C)C(=O)Nc1cc(-c2ncnc3c(C)nn(C)c23)cc(C#Cc2cc(C)nc(C)c2)n1` (stereo not shown) [Example 39, N-(4-{1,3-dimethyl-1H-pyrazolo[4,3-d]pyrimidin-7-yl}-6-[2-(2,6-dimethyl-pyridin-4-yl)ethynyl]pyridin-2-yl)-2-(methylamino)-propanamide], 1 nM.
With `CNC(C)C(=O)Nc1cc(-c2ncnc3c(C)nn(C)c23)cc(C#Cc2cc(F)cc(F)c2)n1` (stereo not shown) [Example 40, N-{6-[2-(3,5-difluorophenyl)ethynyl]-4-{1,3-dimethyl-1H-pyrazolo[4,3-d]pyrimidin-7-yl}pyridin-2-yl}-2-(methyl-amino)propanamide], the 50% inhibitory concentration (IC50) was 1 nM.
On to `CNC(C)C(=O)Nc1cc(-c2ncnc3c(C)nn(C)c23)cc(C#Cc2ccc(-n3cnc(C)c3)cc2)n1` (stereo not shown) [Example 41, N-(4-{1,3-dimethyl-1H-pyrazolo[4,3-d]pyrimidin-7-yl}-6-{2-[4-(4-methyl-1H-imidazol-1-yl)phenyl]-ethynyl}pyridin-2-yl)-2-(methylamino)propanamide], for which the 50% inhibitory concentration (IC50) was 1 nM.
For `CNC(C)C(=O)Nc1cc(-c2ncnc3c(C)nn(C)c23)cc(C#Cc2cc(F)c3ncccc3c2)n1` (stereo not shown) [Example 42, N-(4-{1,3-dimethyl-1H-pyrazolo[4,3-d]pyrimidin-7-yl}-6-[2-(8-fluoroquinolin-6-yl)ethynyl]pyridin-2-yl)-2-(methylamino)propanamide] the value was 1 nM; for `CNC(C)C(=O)Nc1cc(-c2ncnc3c(C)nn(C)c23)cc(C#Cc2cnc3c(cnn3C)c2)n1` (stereo not shown) [Example 43, N-(4-{1,3-dimethyl-1H-pyrazolo[4,3-d]pyrimidin-7-yl}-6-(2-{1-methyl-1H-pyrazolo[3,4-b]pyridin-5-yl}ethynyl)pyridin-2-yl)-2-(methylamino)propanamide], 1 nM.

What is called IC50 is the concentration at which inhibition is half-maximal.
